The text below walks through data of ChEMBL document CHEMBL1201862, “PubChem BioAssay data set” (2004).

Common to all, as to experiment: NCI anticancer screen, dose series, 48 h
Experiment [1] has as its system A498.
Experiment [2] concerns CCRF-CEM.
Experiment [3] has as its system COLO 205.
Experiment [4] concerns HCT-15.
Experiment [5] deals with HL-60.
Experiment [6] concerns HOP-92.
Experiment [7] relates to HT-29.
In experiment [8] the test system is IGROV-1.
For experiment [9], the system named is M14.
In experiment [10] the test system is MDA-MB-231.
Experiment [11] relates to MDA-N.
In experiment [12] the test system is Malme-3M.
The test system of experiment [13] is NCI-H23.
For experiment [14], the system named is NCI-H460.
Experiment [15] relates to OVCAR-5.
The test system of experiment [16] is OVCAR-8.
For experiment [17], the system named is SF-268.
Experiment [18] deals with SK-MEL-28.
The subject of experiment [19] is SW-620.
The subject of experiment [20] is UACC-257.

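Results reflect a 48-hour exposure of cells in 96-well plates to compound at five concentrations. GI50 = concentration required for 50% inhibition of growth.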 Active and inactive are the calls of the source. Cut-off read from the data, not from the text of the source: active = GI50 up to about 1.1 µM and inactive = higher.

Turning to `O=C(/C=N/O)Nc1cc(Cl)c(Cl)cc1Cl`, the GI50 was 16.6 µM (inactive) in experiment [1]; 26.7 µM (inactive) in experiment [2]; 26.8 µM (inactive) in experiment [3]; 31.4 µM in experiment [4]; 18.7 µM (inactive) in experiment [5]; 26.9 µM (inactive) in [6]. Also, the GI50 in [7] was 36.8 µM (inactive); in [8], 20.7 µM (inactive); in experiment [9] it was 34.4 µM (inactive); in [10] it was 25.8 µM (inactive); in experiment [11], 27.7 µM (inactive); in [12], 35.7 µM (inactive). Besides, the GI50 in [13] is 29.6 µM (inactive); in experiment [14] it was 28.4 µM (inactive); in experiment [15] it was 42.1 µM (inactive); in experiment [16], 23.8 µM (inactive); in experiment [17], 33.3 µM (inactive); in experiment [18], 41 µM (inactive). Besides, the GI50 in experiment [19] was 35.7 µM (inactive); in experiment [20], 26.6 µM (inactive).
On to `O=C1c2cccc3cccc(c23)C(=O)N1CCCNCCCCNCCCN1C(=O)c2cccc3cccc(c23)C1=O`, for which the GI50 was 0.946 µM (active) in experiment [1]; < 0.01 µM (active) in experiment [2]; 0.192 µM (active) in experiment [3]; 3.22 µM in experiment [4]; 0.32 µM (active) in experiment [5]; 0.18 µM (active) in experiment [6]. Further, the GI50 is 0.0315 µM (active) in experiment [7]; 0.0697 µM (active) in experiment [8]; 0.604 µM (active) in [9]; 0.137 µM (active) in experiment [10]; 0.256 µM (active) in experiment [11]; 0.144 µM (active) in experiment [12]. The GI50 in experiment [13] is 0.0944 µM (active); in [14], 0.0194 µM (active); in experiment [15], 0.316 µM (active); in experiment [16] it was 0.177 µM (active); in experiment [17] it was 0.025 µM (active); in experiment [18], 0.238 µM (active). For the same molecule, the GI50 in experiment [19] is 0.0612 µM (active); in experiment [20], 0.61 µM (active).
In the case of `O=C(O)c1ccccc1-c1ccccc1C(=O)c1ccccc1`, the GI50 is > 100 µM (inactive) in experiment [1]; > 100 µM (inactive) in experiment [2]; > 100 µM (inactive) in experiment [3]; above 100 µM in experiment [4]; > 100 µM (inactive) in experiment [5]; 51.6 µM (inactive) in experiment [6]. The GI50 in experiment [7], in [8], in [9], in experiment [10], in experiment [11] and in experiment [12] was > 100 µM (inactive) in each case. The GI50 in [13], in experiment [14], in experiment [15], in experiment [16], in [17] and in [18] was > 100 µM (inactive) throughout. In addition, the GI50 in experiment [19] and in experiment [20] was > 100 µM (inactive) each time.
As to `O=C1NC(=S)NC1C(Cc1ccccc1)c1ccco1` (centres undefined), the GI50 in [1] was > 100 µM (inactive); in experiment [2] it was 68.2 µM (inactive); in experiment [3], > 100 µM (inactive); in experiment [4], above 100 µM; in [5] it was 39.6 µM (inactive); in experiment [6], > 100 µM (inactive). Also, the GI50 in [7], in experiment [8], in experiment [9], in experiment [10], in experiment [11] and in experiment [12] was > 100 µM (inactive) each time. In addition, the GI50 in experiment [13], in experiment [14], in experiment [15], in experiment [16], in experiment [17] and in experiment [18] was > 100 µM (inactive) throughout. In addition, the GI50 in [19] and in experiment [20] was > 100 µM (inactive) in each case.
Turning to `Cc1[nH]n(-c2nc(O)c(C)c(=O)[nH]2)c(=O)c1CCO`, the GI50 in experiment [1] was > 100 µM (inactive); in experiment [2], > 100 µM (inactive); in experiment [3], > 100 µM (inactive); in [4], above 100 µM; in [5], > 100 µM (inactive); in experiment [6] it was > 100 µM (inactive). The GI50 in experiment [7], in experiment [8], in experiment [9], in experiment [10], in [11] and in experiment [12] was > 100 µM (inactive) in each case. In addition, the GI50 in experiment [13], in experiment [14], in experiment [15], in experiment [16], in experiment [17] and in experiment [18] was > 100 µM (inactive) throughout. Besides, the GI50 in [19] and in experiment [20] was > 100 µM (inactive) in each case.
With `CCCCCCSCC/C(C)=N\OC`, the GI50 was > 100 µM (inactive) in experiment [1]; > 100 µM (inactive) in [2]; > 100 µM (inactive) in experiment [3]; above 100 µM in experiment [4]; 45.3 µM (inactive) in experiment [5]; > 100 µM (inactive) in [6]. The GI50 in experiment [7], in experiment [8], in experiment [9], in experiment [10], in experiment [11] and in experiment [12] was > 100 µM (inactive) in each case. For the same molecule, the GI50 in experiment [13], in experiment [14], in experiment [15], in experiment [16], in experiment [17] and in experiment [18] was > 100 µM (inactive) each time. In addition, the GI50 in experiment [19] and in [20] was > 100 µM (inactive) in each case.
`CCOC(=O)c1c(CN2CCNCC2)nc2ccccc2c1-c1ccccc1`: the GI50 in experiment [1] is 14.6 µM (inactive); in experiment [2] it was 12.7 µM (inactive); in [3], 14.3 µM (inactive); in experiment [4] it was 16.1 µM; in experiment [5], 12.9 µM (inactive); in experiment [6], 4.69 µM (inactive). The GI50 in experiment [7] was 5.41 µM (inactive); in [8] it was 15.3 µM (inactive); in experiment [9] it was 13.4 µM (inactive); in [10], 15.6 µM (inactive); in [11] it was 10.9 µM (inactive); in [12] it was 10.2 µM (inactive). Besides, the GI50 in experiment [13] was 18.7 µM (inactive); in experiment [14] it was 14.3 µM (inactive); in experiment [15], 16.8 µM (inactive); in experiment [16], 15.8 µM (inactive); in experiment [17], 14 µM (inactive); in [18], 11.7 µM (inactive). Moreover, the GI50 in experiment [19] was 17.1 µM (inactive); in experiment [20] it was 4.07 µM (inactive).
In the case of `CCOC(=O)COC1=Nc2cc(OC)c(OC)c3nc(Cl)cc(c23)C1=O`, the GI50 is 11.4 µM (inactive) in experiment [1]; 0.299 µM (active) in experiment [2]; 1.92 µM (inactive) in experiment [3]; 2.34 µM in [4]; 0.252 µM (active) in experiment [5]; 1.7 µM (inactive) in experiment [6]. Also, the GI50 in experiment [7] is 2.29 µM (inactive); in experiment [8] it was 2.37 µM (inactive); in [9], 1.65 µM (inactive); in experiment [10] it was 1.76 µM (inactive); in experiment [11], 1.18 µM (inactive); in experiment [12], 1.36 µM (inactive). Moreover, the GI50 in experiment [13] was 2.25 µM (inactive); in experiment [14] it was 18.8 µM (inactive); in experiment [15] it was 1.94 µM (inactive); in experiment [16], 2.43 µM (inactive); in experiment [17] it was 2.37 µM (inactive); in experiment [18] it was 1.99 µM (inactive). Further, the GI50 is 2.16 µM (inactive) in experiment [19] and 1.75 µM (inactive) in experiment [20].
With `O=C(CC1C(=O)Nc2ccccc2[S+]1[O-])Nc1cccc(Cl)c1` (centres undefined), the GI50 in experiment [1] was 13.2 µM (inactive); in experiment [2] it was > 35.4 µM (inactive); in experiment [3] it was > 41 µM (inactive); in experiment [4] it was 27.1 µM; in experiment [5], > 33.5 µM (inactive); in [6], 19.5 µM (inactive). The GI50 was > 35.6 µM (inactive) in experiment [7]; > 37.5 µM (inactive) in experiment [8]; > 42.4 µM (inactive) in [9]; 7.31 µM (inactive) in [10]; 18.6 µM (inactive) in experiment [11]; > 55.6 µM (inactive) in experiment [12]. In addition, the GI50 in experiment [13] is > 44.9 µM (inactive); in [14], > 44.6 µM (inactive); in experiment [15], > 62.7 µM (inactive); in [16], 33 µM (inactive); in experiment [17], 55.1 µM (inactive); in [18], > 57.7 µM (inactive). The GI50 is > 48 µM (inactive) in [19] and > 50.5 µM (inactive) in experiment [20].
`O=S(=O)(c1cc(Cl)ccc1Cl)N1CCN(c2cccc(Cl)c2)CC1`: the GI50 in experiment [1] was > 100 µM (inactive); in [2], > 100 µM (inactive); in experiment [4], above 100 µM; in experiment [5], > 100 µM (inactive); in experiment [6] it was > 100 µM (inactive); in [7], 58.7 µM (inactive). Moreover, the GI50 in experiment [8] is > 100 µM (inactive); in experiment [9], > 10 µM (inactive); in [10], > 100 µM (inactive); in experiment [11], 59.2 µM (inactive); in experiment [12], > 100 µM (inactive); in [13], > 100 µM (inactive). Besides, the GI50 in experiment [14], in experiment [15], in experiment [16], in experiment [17], in experiment [18] and in experiment [19] was > 100 µM (inactive) in each case. Also, the GI50 in experiment [20] is > 100 µM (inactive).
